Target: T1, HCV NS3/4A protease complex, J4L6S strain (Hepatitis C virus genotype 1b, UniProt O92972, C1454S/C1711G)
T1 construct: recombinant HCV NS3/4A protease complex (amino acids 1027 to 1711); inferred from pET21b vector and Ni-NTA purification; made in house; host or cells: Escherichia coli BL21 (DE3), pET21b
Assay: Recombinant HCV NS3/4A protease complex FRET peptide assay (J4L6S strain)
Type: biochemical, HCV genotype 1b
Excerpt: Recombinant HCV NS3/4A Protease Complex FRET Peptide Assay
The purpose of this in vitro assay was to measure the inhibition of HCV NS3 protease complexes, derived from the BMS, H77C or J416S strains, as described below, by compounds of the present invention. This assay provides an indication of how effective compounds of the present invention would be in inhibiting HCV proteolytic activity.
Serum from an HCV-infected patient was obtained from Dr. T. Wright, San Francisco Hospital. An engineered full-length cDNA (compliment deoxyribonucleic acid) template of the HCV genome (BMS strain) was constructed from DNA fragments obtained by reverse transcription-PCR(RT-PCR) of serum RNA (ribonucleic acid) and using primers selected on the basis of homology between other genotype 1a strains. From the determination of the entire genome sequence, a genotype 1a was assigned to the HCV isolate according to the classification of Simmonds et al. (See P Simmonds, Kans. Rose, S Graham, S W Chan, F McOmish, B C Dow, E A Follett, P L Yap and H Marsden, J. Clin. Microbiol., 31(6), 1493-1503 (1993)). […]

T1 sequence (O92972 1027-1711 C1454S/C1711G, one chain of several): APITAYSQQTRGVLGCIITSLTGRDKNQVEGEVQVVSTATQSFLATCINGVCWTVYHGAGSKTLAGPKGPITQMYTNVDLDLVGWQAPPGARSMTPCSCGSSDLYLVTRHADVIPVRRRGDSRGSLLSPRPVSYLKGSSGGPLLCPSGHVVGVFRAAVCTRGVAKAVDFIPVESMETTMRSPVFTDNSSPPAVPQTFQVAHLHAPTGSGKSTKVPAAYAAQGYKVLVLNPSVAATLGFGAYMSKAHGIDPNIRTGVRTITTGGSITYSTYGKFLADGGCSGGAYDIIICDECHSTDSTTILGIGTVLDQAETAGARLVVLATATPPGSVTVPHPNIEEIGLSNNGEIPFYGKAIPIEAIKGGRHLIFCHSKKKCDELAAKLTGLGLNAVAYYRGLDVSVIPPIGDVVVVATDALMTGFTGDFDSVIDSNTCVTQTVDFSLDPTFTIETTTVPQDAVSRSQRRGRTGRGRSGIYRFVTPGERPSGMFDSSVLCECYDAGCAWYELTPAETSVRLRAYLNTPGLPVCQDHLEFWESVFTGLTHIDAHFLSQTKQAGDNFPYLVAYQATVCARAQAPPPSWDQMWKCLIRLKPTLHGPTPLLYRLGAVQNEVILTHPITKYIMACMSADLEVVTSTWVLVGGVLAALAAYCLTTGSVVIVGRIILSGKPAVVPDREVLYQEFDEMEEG

Work on `C=C[C@@H]1C[C@]1(NC(=O)[C@@H]1C[C@@H](Oc2nc(C3CC3)cc3ccccc23)CN1C(=O)[C@@H](NC(=O)OC(C)(C)C)C(C)(C)C)C(=O)NS(=O)(=O)C1CC1` [Compound 34] yielded an IC50 of 2.9 nM.
